Measurements as given in the supplement of paper PMC10307832.

Assays:
Assay in all cases: relative viability (nuclei count vs DMSO), 5 days (fraction); higher = more cells survive
[1] = compound: CC(=O)O[C@@]12CO[C@@H]1C[C@H](O)[C@@]1(C)C(=O)[C@H](O)C3=C(C)[C@@H](OC(=O)[C@H](O)[C@@H](NC(=O)OC(C)(C)C)c4ccccc4)C[C@@](O)([C@@H](OC(=O)c4ccccc4)[C@H]21)C3(C)C [Docetaxel]
In short: (§1)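 Viability was read as treated-well nuclei divided by vehicle-well nuclei, using the median across plates. Lung cancer cell lines in 1536-well plates were kept overnight at 37 °C, pinned with five √10-spaced library-drug doses, and after 5 days were Hoechst-stained, imaged at 4× and counted in MetaXpress. Plates passed only with control CV below 25% and at least one doubling.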

[2] = compound: COc1cc2nccc(Oc3ccc(NC(=O)Nc4cc(C)on4)c(Cl)c3)c2cc1OC [Tivozanib]
In short: as §1

[3] = compound: Cc1cnc(-c2cnc(NCCNc3ccc(C#N)cn3)nc2-c2ccc(Cl)cc2Cl)[nH]1
In short: as §1

[4] = compound: Cc1sc2c(c1C)C(c1ccc(Cl)cc1)=N[C@@H](CC(=O)OC(C)(C)C)c1nnc(C)n1-2 [JQ1]
In short: as §1

[5] = compound: Nc1ccn([C@@H]2O[C@H](CO)[C@@H](O)[C@@H]2O)c(=O)n1 [Cytarabine]
In short: as §1

[6] = compound: O=C(O)CCCCC(CCSCc1ccccc1)SCc1ccccc1 [CPI-613]
In short: as §1

[7] = compound: O=c1[nH]c2ccccc2n1C1CCN(CCCC(c2ccc(F)cc2)c2ccc(F)cc2)CC1 [Pimozide]
In short: as §1

Cell Line	relative viability ([1]; 0.0002 µM)	relative viability ([1]; 0.000632 µM)	relative viability ([1]; 0.002 µM)	relative viability ([1]; 0.006325 µM)	relative viability ([1]; 0.02 µM)	relative viability ([2]; 0.005 µM)	relative viability ([2]; 0.01581 µM)	relative viability ([2]; 0.05 µM)	relative viability ([2]; 0.1581 µM)	relative viability ([2]; 0.5 µM)	relative viability ([3]; 0.08 µM)	relative viability ([3]; 0.253 µM)	relative viability ([3]; 0.8 µM)	relative viability ([3]; 2.53 µM)	relative viability ([4]; 0.04 µM)	relative viability ([4]; 0.1265 µM)	relative viability ([4]; 0.4 µM)	relative viability ([4]; 1.265 µM)	relative viability ([4]; 4 µM)	relative viability ([5]; 0.005 µM)	relative viability ([5]; 0.01581 µM)	relative viability ([5]; 0.05 µM)	relative viability ([5]; 0.1581 µM)	relative viability ([5]; 0.5 µM)	relative viability ([6]; 5 µM)	relative viability ([6]; 15.81 µM)	relative viability ([6]; 50 µM)	relative viability ([6]; 158.11 µM)	relative viability ([6]; 500 µM)	relative viability ([7]; 0.08 µM)	relative viability ([7]; 0.253 µM)	relative viability ([7]; 0.8 µM)	relative viability ([7]; 2.53 µM)	relative viability ([7]; 8 µM)
LCLC-103H	0.973	1.09	0.903	0.502	0.458	0.996	0.995	1.06	0.982	0.994	1.03	0.865	0.989	0.952	0.979	0.83	0.906	0.658	0.427	0.912	0.991	1.01	0.965	0.894	0.999	0.95	0.99	0.854	0.773	0.975	0.905	0.911	0.969	0.963
LK-2	0.921	0.771	0.27	0.208	0.144	1.05	0.962	0.937	0.834	0.784	1.14	0.941	0.995	1.15	0.942	0.907	0.497	0.236	0.218	0.797	0.604	0.414	0.259	0.212	0.943	0.953	1.16	1	0.929	0.965	0.93	0.843	0.808	1.06
LOU-NH91	0.898	0.758	0.473	0.369	0.354	0.865	1.04	0.982	0.814	0.945	1.01	0.924	0.94	0.976	0.989	0.801	0.637	0.626	0.462	0.955	0.918	0.723	0.7	0.584	0.926	0.951	0.982	0.913	0.842	0.785	0.924	0.916	1.04	0.896
LU99A	0.997	0.83	0.478	0.395	0.203	0.987	0.849	0.942	0.751	0.952	1.06	0.939	1.04	0.963	0.847	0.667	0.82	0.542	0.32	1.06	0.825	0.905	0.886	0.929	0.896	0.886	0.832	0.756	0.279	0.907	0.938	0.858	0.893	1
LXF-289	1	0.731	0.473	0.171	0.128	0.998	0.935	0.996	1.1	0.956	1.01	0.864	1.06	1.1	0.984	0.965	0.981	0.936	0.671	0.93	1	0.883	0.563	0.305	0.922	0.958	0.992	0.78	0.0678	0.963	1	0.917	0.998	0.923
NCI-H23	0.99	0.725	0.296	0.209	0.137	0.943	0.966	0.913	0.661	0.61	0.891	0.873	0.941	0.842	0.919	0.874	0.584	0.274	0.218	0.773	0.564	0.559	0.246	0.203	0.982	0.881	0.943	0.39	0.043	0.95	1.05	0.773	0.851	0.808
NCI-H322M	0.957	0.889	0.762	0.612	0.439	0.948	0.929	0.972	0.791	0.902	0.976	0.842	0.853	1.26	0.917	1.05	0.822	0.57	0.437	0.877	0.794	0.628	0.475	0.336	0.894	0.85	0.899	0.911	0.153	–	0.932	1.02	0.948	0.705
NCI-H358	0.768	0.463	0.251	0.209	0.138	0.898	0.944	1.1	0.915	1.01	0.97	0.818	0.822	0.796	0.982	0.976	0.941	0.638	0.461	0.912	0.757	0.509	0.2	0.161	0.876	0.949	0.901	0.495	0.038	0.796	1.02	0.876	0.943	0.925
NCI-H441	0.977	0.747	0.288	0.26	0.13	0.949	0.93	0.919	0.895	0.766	1.01	0.768	0.95	0.867	1.01	0.813	0.719	0.598	0.352	0.962	0.973	0.965	0.365	0.367	0.954	1.01	0.924	0.4	0.0254	1.12	0.9	0.804	0.883	0.776
NCI-H460	0.949	0.806	0.288	0.0373	0.0295	0.985	1.06	0.989	1.03	0.965	1	0.911	0.981	0.883	0.97	0.617	0.593	0.353	0.197	0.962	0.894	0.256	0.0513	0.0345	0.973	0.97	1	0.66	0.515	1.01	0.95	0.964	0.913	0.922
NCI-H520	0.853	0.973	0.489	0.277	0.169	0.906	0.922	0.884	0.684	0.859	1.04	1	1.03	1.07	0.954	1.07	0.905	0.533	0.458	0.94	1.04	1.13	0.741	0.657	1.05	0.952	1.04	0.77	0.139	0.993	0.978	0.903	0.96	0.972
NCI-H522	0.927	0.727	0.689	0.579	0.389	0.961	1.21	0.925	0.802	0.787	1.07	1.01	1.02	0.873	0.957	0.915	0.793	0.457	0.425	0.868	0.878	0.762	0.566	0.53	0.864	0.944	1.09	0.921	0.53	0.93	0.885	0.868	0.893	0.906
NCI-H596	0.89	0.89	0.632	0.518	0.273	0.926	0.963	1.13	–	0.99	0.995	0.972	0.754	1.07	1.06	0.923	0.747	0.412	0.286	0.956	0.841	0.798	0.689	0.551	0.956	0.902	1.04	0.781	0.0741	0.993	0.935	0.882	0.952	0.847
NCI-H647	0.739	0.43	0.209	0.148	0.0799	0.843	0.98	0.981	0.844	0.826	1.06	0.862	0.931	0.934	0.894	0.569	0.527	0.292	0.121	0.63	0.323	0.265	0.111	0.0762	0.913	0.778	0.871	0.499	0.239	0.91	0.981	0.848	0.857	0.806
NCI-H650	0.871	0.456	0.343	0.257	0.187	0.86	0.979	0.935	0.607	0.706	1.03	1.01	0.797	0.783	0.946	0.628	0.78	0.365	0.298	0.893	0.581	0.328	0.234	0.205	0.937	0.803	1.05	0.621	0.716	0.969	0.914	0.839	0.997	1.12
NCI-H661	0.93	0.986	1	0.541	0.459	0.954	0.975	0.993	0.992	1.01	0.979	0.973	0.975	0.898	1.03	0.962	0.952	0.879	0.769	1.04	0.93	0.902	0.715	0.581	0.963	0.914	0.956	0.832	0.233	0.99	1.01	0.925	0.897	0.924
NCI-H727	0.772	0.892	0.726	0.548	0.413	0.8	0.85	1.01	0.702	0.917	0.952	0.864	0.943	0.86	0.923	0.988	0.413	0.465	0.409	0.785	0.766	0.788	0.402	0.382	0.831	0.825	0.916	0.654	0.309	0.849	0.864	0.998	0.879	0.93
NCI-H838	0.937	0.867	0.393	0.197	0.175	0.957	0.969	1.01	0.736	0.979	0.999	0.93	1.05	1.16	0.961	0.59	0.792	0.436	0.343	0.97	0.964	0.743	0.423	0.293	0.948	0.864	0.883	0.649	0.0946	0.953	0.998	0.93	0.927	0.959
